Data on 28 compounds can be found in patent US9540392B2, “Thienopyrimidines” (BAYER PHARMA AKTIENGESELLSCHAFT, priority 2012, dated 2017).

SMILES strings stand for the structures.

The target in the assay is T1, human full-length MKNK1 (Homo sapiens, UniProt Q9BUB5, T385D).
T1 construct: GST (N); purchased Carna Biosciences 02-145; host or cells: insect cells (baculovirus expression system)
T1 sequence (Q9BUB5 1-424 isoform Q9BUB5-2 T344D): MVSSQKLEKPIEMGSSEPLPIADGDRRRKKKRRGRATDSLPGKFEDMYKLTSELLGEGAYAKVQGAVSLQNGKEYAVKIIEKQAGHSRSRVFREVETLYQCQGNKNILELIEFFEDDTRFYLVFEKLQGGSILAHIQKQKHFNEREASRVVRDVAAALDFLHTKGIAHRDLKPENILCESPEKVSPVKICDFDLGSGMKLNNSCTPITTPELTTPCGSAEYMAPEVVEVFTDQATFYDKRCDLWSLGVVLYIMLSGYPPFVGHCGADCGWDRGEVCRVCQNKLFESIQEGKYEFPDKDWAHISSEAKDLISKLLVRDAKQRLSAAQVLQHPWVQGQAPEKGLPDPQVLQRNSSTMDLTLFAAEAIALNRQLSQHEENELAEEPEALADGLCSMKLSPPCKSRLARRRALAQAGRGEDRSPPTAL
Put plainly: MKNK1 kinase high ATP assay (TR-FRET). To be noted: 2 mM ATP, after preincubation with MKNK1; read-out: MKNK1 IC50 (MKNK1 high ATP). The class given is biochemical. In outline:
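Compound was preincubated 15 min at 22° C. with MKNK1 in 50 mM HEPES pH 7.5, 5 mM MgCl2, 1.0 mM DTT, then the reaction ran 30 min at 22° C. with 2 mM ATP and 0.06 μM biotinylated peptide (final).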
(In general: Time-resolved FRET reads energy transfer from a long-lived donor to a nearby acceptor.)
A word on the IC50: it is the concentration that gives 50% inhibition. Consider `NS(=O)(=O)c1ccc(CNC(=O)C2CCc3c(sc4ncnc(Nc5ccc6[nH]ncc6c5)c34)C2)cc1` (racemic) [Example 121, (RS)-4-(1H-indazol-5-ylamino)-N-(4-sulfamoylbenzyl)-5,6,7,8-tetrahydro[1]benzothieno[2,3-d]pyrimidine-7-carboxamide], for which the IC50 came to 4 nM. Turning to `CC(O)CN(C)C(=O)C1CCc2c(sc3ncnc(Nc4ccc5[nH]ncc5c4)c23)C1` (racemic) [Example 122, (RS)-N-(2-hydroxypropyl)-4-(1H-indazol-5-ylamino)-N-methyl-5,6,7,8-tetrahydro[1]benzothieno[2,3-d]pyrimidine-7-carboxamide], the concentration for half-maximal inhibition (IC50) is 11.2 nM. To `O=C(NC1CCOCC1)C1CCc2c(sc3ncnc(Nc4ccc5[nH]ncc5c4)c23)C1` (racemic) [Example 123, (RS)-4-(1H-indazol-5-ylamino)-N-(tetrahydro-2H-pyran-4-yl)-5,6,7,8-tetrahydro[1]benzothieno[2,3-d]pyrimidine-7-carboxamide] belongs 11.3 nM; to `CC(=O)N[C@@H]1CCN(C(=O)C2CCc3c(sc4ncnc(Nc5ccc6[nH]ncc6c5)c34)C2)C1` (mixture of isomers) [Example 124, (RS)-N-(1-{[4-(1H-indazol-5-ylamino)-5,6,7,8-tetrahydro[1]benzothieno[2,3-d]pyrimidin-7-yl]carbonyl}pyrrolidin-3-yl)acetamide], 8 nM. To `O=C(NCCN1CCNC1=O)C1CCc2c(sc3ncnc(Nc4ccc5[nH]ncc5c4)c23)C1` (racemic) [Example 125, (RS)-4-(1H-indazol-5-ylamino)-N-[2-(2-oxoimidazolidin-1-yl)ethyl]-5,6,7,8-tetrahydro[1]benzothieno[2,3-d]pyrimidine-7-carboxamide] belongs 10.5 nM; to `CN(C)C(=O)N1CCN(C(=O)C2CCc3c(sc4ncnc(Nc5ccc6[nH]ncc6c5)c34)C2)CC1` (racemic) [Example 126, (RS)-4-{[4-(1H-indazol-5-ylamino)-5,6,7,8-tetrahydro[1]benzothieno[2,3-d]pyrimidin-7-yl]carbonyl}-N,N-dimethylpiperazine-1-carboxamide], 14.8 nM. As to `O=C(C1CCc2c(sc3ncnc(Nc4ccc5[nH]ncc5c4)c23)C1)N1CCC(c2ccccc2)CC1` (racemic) [Example 127, (RS)-[4-(1H-indazol-5-ylamino)-5,6,7,8-tetrahydro[1]benzothieno[2,3-d]pyrimidin-7-yl](4-phenylpiperidin-1-yl)methanone], the IC50 is 10.7 nM. To `O=C(Nc1ccnnc1)C1CCc2c(sc3ncnc(Nc4ccc5[nH]ncc5c4)c23)C1` (racemic) [Example 128, (RS)-4-(1H-indazol-5-ylamino)-N-(pyridazin-4-yl)-5,6,7,8-tetrahydro[1]benzothieno[2,3-d]pyrimidine-7-carboxamide] belongs 15 nM; to `CN(C)CCN1CCN(C(=O)C2CCc3c(sc4ncnc(Nc5ccc6[nH]ncc6c5)c34)C2)CC1` (racemic) [Example 129, (RS)-{4-[2-(dimethylamino)ethyl]piperazin-1-yl}[4-(1H-indazol-5-ylamino)-5,6,7,8-tetrahydro[1]benzothieno[2,3-d]pyrimidin-7-yl]methanone], 7.7 nM.

`COCCN(C)C(=O)C1CCc2c(sc3ncnc(Nc4ccc5[nH]ncc5c4)c23)C1` (racemic) [Example 130, (RS)-4-(1H-indazol-5-ylamino)-N-(2-methoxyethyl)-N-methyl-5,6,7,8-tetrahydro[1]benzothieno[2,3-d]pyrimidine-7-carboxamide]: the IC50 was 9.5 nM. To `O=C(C1CCc2c(sc3ncnc(Nc4ccc5[nH]ncc5c4)c23)C1)N1CCN(C2CCCC2)CC1` (racemic) [Example 131, (RS)-(4-cyclopentylpiperazin-1-yl)[4-(1H-indazol-5-ylamino)-5,6,7,8-tetrahydro[1]benzothieno[2,3-d]pyrimidin-7-yl]methanone] belongs 13.5 nM; to `O=C(C1CCc2c(sc3ncnc(Nc4ccc5[nH]ncc5c4)c23)C1)N1CCC(CO)CC1` (racemic) [Example 132, (RS)-[4-(hydroxymethyl)piperidin-1-yl][4-(1H-indazol-5-ylamino)-5,6,7,8-tetrahydro[1]benzothieno[2,3-d]pyrimidin-7-yl]methanone], 10.3 nM.

As for `COCCN1CCN(C(=O)C2CCc3c(sc4ncnc(Nc5ccc6[nH]ncc6c5)c34)C2)CC1` (racemic) [Example 133, (RS)-[4-(1H-indazol-5-ylamino)-5,6,7,8-tetrahydro[1]benzothieno[2,3-d]pyrimidin-7-yl][4-(2-methoxyethyl)piperazin-1-yl]methanone], the concentration for half-maximal inhibition (IC50) worked out at 21.4 nM. Next, `O=C(C1CCc2c(sc3ncnc(Nc4ccc5[nH]ncc5c4)c23)C1)N1CC[C@@H](O)C1` (mixture of isomers) [Example 134, (RS)-(3-hydroxypyrrolidin-1-yl)[4-(1H-indazol-5-ylamino)-5,6,7,8-tetrahydro[1]benzothieno[2,3-d]pyrimidin-7-yl]methanone]: 12.7 nM. Next, `Cn1nccc1CNC(=O)C1CCc2c(sc3ncnc(Nc4ccc5[nH]ncc5c4)c23)C1` (racemic) [Example 136, (RS)-4-(1H-indazol-5-ylamino)-N-[(1-methyl-1H-pyrazol-5-yl)methyl]-5,6,7,8-tetrahydro[1]benzothieno[2,3-d]pyrimidine-7-carboxamide]: 7.6 nM. Consider `CN(Cc1ccn(C)n1)C(=O)C1CCc2c(sc3ncnc(Nc4ccc5[nH]ncc5c4)c23)C1` (racemic) [Example 137, (RS)-4-(1H-indazol-5-ylamino)-N-methyl-N-[(1-methyl-1H-pyrazol-3-yl)methyl]-5,6,7,8-tetrahydro[1]benzothieno[2,3-d]pyrimidine-7-carboxamide], for which the IC50 stood at 15.6 nM.

In the case of `CN(Cc1ccnn1C)C(=O)C1CCc2c(sc3ncnc(Nc4ccc5[nH]ncc5c4)c23)C1` (racemic) [Example 138, (RS)-4-(1H-indazol-5-ylamino)-N-methyl-N-[(1-methyl-1H-pyrazol-5-yl)methyl]-5,6,7,8-tetrahydro[1]benzothieno[2,3-d]pyrimidine-7-carboxamide], the IC50 came out at 12.6 nM. Take `O=C(NCc1cc[nH]n1)C1CCc2c(sc3ncnc(Nc4ccc5[nH]ncc5c4)c23)C1` (racemic) [Example 139, (RS)-4-(1H-indazol-5-ylamino)-N-(1H-pyrazol-3-ylmethyl)-5,6,7,8-tetrahydro[1]benzothieno[2,3-d]pyrimidine-7-carboxamide]: the 50% inhibitory concentration (IC50) worked out at 6.9 nM.

For the compound `Cn1ccc(NC(=O)C2CCc3c(sc4ncnc(Nc5ccc6[nH]ncc6c5)c34)C2)n1` (racemic) [Example 140, (RS)-4-(1H-indazol-5-ylamino)-N-(1-methyl-1H-pyrazol-3-yl)-5,6,7,8-tetrahydro[1]benzothieno[2,3-d]pyrimidine-7-carboxamide], the IC50 was found to be 12.4 nM. For `N#Cc1ccc(N2CCN(C(=O)C3CCc4c(sc5ncnc(Nc6ccc7[nH]ncc7c6)c45)C3)CC2)cc1` (racemic) [Example 141, (RS)-4-(4-{[4-(1H-indazol-5-ylamino)-5,6,7,8-tetrahydro[1]benzothieno[2,3-d]pyrimidin-7-yl]carbonyl}piperazin-1-yl)benzonitrile], the half-inhibitory concentration (IC50) is 17.4 nM. To `O=C(C1CCc2c(sc3ncnc(Nc4ccc5[nH]ncc5c4)c23)C1)N1CCN(Cc2ccncc2)CC1` (racemic) [Example 142, (RS)-[4-(1H-indazol-5-ylamino)-5,6,7,8-tetrahydro[1]benzothieno[2,3-d]pyrimidin-7-yl][4-(pyridin-4-ylmethyl)piperazin-1-yl]methanone] belongs 22.4 nM; to `CN(C)C(=O)CN1CCN(C(=O)C2CCc3c(sc4ncnc(Nc5ccc6[nH]ncc6c5)c34)C2)CC1` (racemic) [Example 143, (RS)-2-(4-{[4-(1H-indazol-5-ylamino)-5,6,7,8-tetrahydro[1]benzothieno[2,3-d]pyrimidin-7-yl]carbonyl}piperazin-1-yl)-N,N-dimethylacetamide], 19.5 nM; to `CN1CCN(CCNC(=O)C2CCc3c(sc4ncnc(Nc5ccc6[nH]ncc6c5)c34)C2)CC1` (racemic) [Example 144, (RS)-4-(1H-indazol-5-ylamino)-N-[2-(4-methylpiperazin-1-yl)ethyl]-5,6,7,8-tetrahydro[1]benzothieno[2,3-d]pyrimidine-7-carboxamide], 21.7 nM.

Turning to `CN(Cc1cccc(F)c1)C(=O)C1CCc2c(sc3ncnc(Nc4ccc5[nH]ncc5c4)c23)C1` (racemic) [Example 145, (RS)-N-(3-fluorobenzyl)-4-(1H-indazol-5-ylamino)-N-methyl-5,6,7,8-tetrahydro[1]benzothieno[2,3-d]pyrimidine-7-carboxamide], the concentration for half-maximal inhibition (IC50) worked out at 4.9 nM. With `Cn1cc(NC(=O)C2CCc3c(sc4ncnc(Nc5ccc6[nH]ncc6c5)c34)C2)cn1` (racemic) [Example 146, (RS)-4-(1H-indazol-5-ylamino)-N-(1-methyl-1H-pyrazol-4-yl)-5,6,7,8-tetrahydro[1]benzothieno[2,3-d]pyrimidine-7-carboxamide], the IC50 turned out to be 26.4 nM.

In the case of `O=C(NC1(c2ccccc2)CC1)C1CCc2c(sc3ncnc(Nc4ccc5[nH]ncc5c4)c23)C1` (racemic) [Example 147, (RS)-4-(1H-indazol-5-ylamino)-N-(1-phenylcyclopropyl)-5,6,7,8-tetrahydro[1]benzothieno[2,3-d]pyrimidine-7-carboxamide], the 50% inhibitory concentration (IC50) worked out at 3.7 nM. To `Cc1cnc(CNC(=O)C2CCc3c(sc4ncnc(Nc5ccc6[nH]ncc6c5)c34)C2)cn1` (racemic) [Example 148, (RS)-4-(1H-indazol-5-ylamino)-N-[(5-methylpyrazin-2-yl)methyl]-5,6,7,8-tetrahydro[1]benzothieno[2,3-d]pyrimidine-7-carboxamide] belongs 8.1 nM; to `O=C(Nc1cccnn1)C1CCc2c(sc3ncnc(Nc4ccc5[nH]ncc5c4)c23)C1` (racemic) [Example 149, (RS)-4-(1H-indazol-5-ylamino)-N-(pyridazin-3-yl)-5,6,7,8-tetrahydro[1]benzothieno[2,3-d]pyrimidine-7-carboxamide], 27.4 nM.
